Measurements taken from US7262164B2, “Polymeric thiol-linked prodrugs employing benzyl elimination systems” (Enzon, Inc., priority 2001, dated 2007).
Marks after values point to notes of the source that are not given here.

Legend:
Solubility in water = type: physicochemical
[1] = test system: Lung M109 syngeneic solid tumors; assay: In vivo M109 tumor model; parameters: species or system Balb/C mice; details: i.v. day 1 & 4; for T/C (%) at Day 18: control median tumor volume approx. 1000 mm^3; for T/C (%) at Day 25: control median tumor volume approx. 2000 mm^3
Procedure: M109 cells (NCI), derived from donor mice, were grown and expanded in tissue culture for in vivo implantation. Cells were grown in EMEM with 10% FBS and 1% streptomycin/penicillin media, kept in an incubator at 37° C. with 5% CO2and split twice a week. Cells were trypsinized, harvested, washed, counted and prepared in PBS for transport to the vivarium. Cells were kept on ice until implantation was conducted with minimum lag time. A cell suspension of approximately 5×10^6 cells/mL was used. Balb/C mice were implanted subcutaneous with 100 μL of the above cell suspension (Day 0). Treatments were administered intravenously on Day 1 and Day 4. Compound doses were based on the content of 6-MP. Body weight and tumor volume were then measured twice weekly until the group's median tumor volume exceeded 2000 mm^3. The tumor volume for each mouse was determined by measuring two dimensions with calipers and calculated using the formula: tumor volume=(length×width^2)/2. Drug effects were determined by comparing tumor growth in treated versus control (no vehicle) mice. Two types of endpoints were used as the basis for comparison: (a) the percent difference in tumor volume (% T/C), measured when the control group's median tumor volume reached approximately 800-1100 mm^3 (exponential growth phase) and (b) again when the control group's median tumor volume was approximately 2000 mm^3.

[2] = test system: murine leukemia cell line L1210/O; assay: In vivo L1210 tumor model (ascites); parameters: species or system mouse; details: Q2d×6, IP, intralipid
Source text: 6-MP and pro-drug forms of 6-MP were screened for in vivo activity against the murine leukemia cell line L1210/O (mouse, lymphocytic leukemia). The cell line was obtained from Southern Research Institute (Birmingham, Ala.) and grown in DMEM supplemented with 10% horse serum. L 1210/O cells were subcultured two times per week and log phase cultures (viability≧95%) were used for all in vivo experiments. Female CD2F1 mice (Taconic Farms, Germantown, N.Y.) at 7-8 weeks of age were used for study. Following one week of acclimation, mice were implanted i.p. with L1210/0 cells (5×10^5 cells/mouse) at designated day 0. The mice were randomly assigned to experimental groups (8-10/group). The groups included control, 6-MP and PEG-6-MP conjugates. 6-MP was solubilized in 3% DMSO and suspended in intralipid and administered Q2d×6, IP. PEG-6-MP was dissolved in phosphate buffer (pH 5.8) and administered Q4d×3, IV. Control groups received vehicle (intralipid or phosphate buffer). The mice were monitored for up to 40 days, and the treatment was evaluated as percentage of increase in life span (ILS).

P388/0 cell lines = assay: Cytotoxicity assay, Alamar Blue cell growth; type: cell-based; details: Mus musculus, 72 h, P388/0 cells, 3 days
Procedure: Cell Lines and Cytotoxicity Assays. Studies using P388/0 cell lines for IC50 (drug concentration inhibiting growth of cells by 50%) were maintained and conducted as previously reported. Briefly, for IC50 determination, cells were seeded into the microwell plates at a density of 2×10^3 cells per 50 μL per well. Plates were incubated at 37° C. in a humidified incubator with 5% CO2 for 3 days. Cell growth was measured by the addition of 10 μL/well of Alamar Blue (Alamar Biosciences, Inc., Sacramento, Calif.) and the plates were incubated a further 4 hours at 37° C. The IC50values for each compound were determined from absorbance versus dilution factor plots. All cell cultures for animal implantation were maintained at 37° C. in a humidified atmosphere of 5% CO2/[…] and subcultured once a week. All cell lines were periodically tested for Mycoplasma and were Mycoplasma free.

[3] = total dose 200 mg/kg (6-MP content)

| Compound | solubility (Solubility in water) | Anti-tumor activity, inhibiting the growth of M109 solid tumors (in words) ([1]; Balb/C mice) | T/C (%) at Day 18 [1, 3] | T/C (%) at Day 25 [1, 3] | % ILS (percent increase in life span) ([2]; total dose 90 mg/kg) | % ILS (percent increase in life span) ([2]; total dose 240 mg/kg) | T/C (%) at Day 18 ([1]; total dose 40 mg/kg) | T/C (%) at Day 25 ([1]; total dose 40 mg/kg) | IC50 (P388/0 cell lines) |
| --- | --- | --- | --- | --- | --- | --- | --- | --- | --- |
| Sc1ncnc2nc[nH]c12 [6-MP (1), 6-mercaptopurine] | < 100 µg/mL | ineffective | 144% | 184% | 31.8% | 52.5* % | – | – | – |
| Nc1nc2nc[nH]c2c(=S)[nH]1 [6-TG (2), 6-thioguanine] | – | – | – | – | – | – | 82% | 78% | 360 nM |
